Laboratory results from PubChem BioAssay AID588480 (Broad Institute, 2011).
Where “and” joins values, the source holds several entries; their conditions need not be identical. Identical values can stand only once. Records with an inconclusive call do not appear. Calls of active or inactive are those of the source.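 The calls were made as follows: active = compounds whose fitted half-maximal concentration stays within ten times the top tested dose in every test run; inconclusive = runs disagree, or a flat partial drop or poor fit; inactive = every run inactive, including flat curves and signal rises.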

The molecules below were run against Serine/threonine-protein kinase 33 (Homo sapiens) (UniProt Q9BYT3) (assay: inhibition of purified STK33 phosphorylating MBP – biochemical, ADP-Glo luminescence, dry powder, set 2, dose response (AID 588480)). Conditions: purified STK33, MBP phosphorylation.
Serine/threonine-protein kinase 33 (Homo sapiens), sequence (Q9BYT3 whole entry, looked up): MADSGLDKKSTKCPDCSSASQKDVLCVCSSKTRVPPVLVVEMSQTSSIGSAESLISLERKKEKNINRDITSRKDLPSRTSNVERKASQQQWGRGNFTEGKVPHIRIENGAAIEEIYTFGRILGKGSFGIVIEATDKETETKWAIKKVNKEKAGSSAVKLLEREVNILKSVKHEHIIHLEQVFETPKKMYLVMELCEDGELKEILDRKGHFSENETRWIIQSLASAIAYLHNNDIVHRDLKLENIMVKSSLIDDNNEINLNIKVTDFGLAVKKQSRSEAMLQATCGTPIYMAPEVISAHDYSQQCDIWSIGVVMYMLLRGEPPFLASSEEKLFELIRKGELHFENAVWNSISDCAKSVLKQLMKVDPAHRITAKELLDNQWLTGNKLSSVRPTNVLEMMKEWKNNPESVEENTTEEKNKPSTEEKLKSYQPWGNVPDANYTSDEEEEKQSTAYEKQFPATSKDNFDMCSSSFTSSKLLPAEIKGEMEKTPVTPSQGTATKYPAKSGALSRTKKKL

| SMILES | AC50 |
| --- | --- |
| COc1ccccc1N=C1NC(=O)/C(=C/c2ccc(O)cc2)S1 | 911 nM |
| O=C(Nc1ccccc1-c1nc2ccccc2[nH]c1=O)c1cccc(Cl)c1 | 709 nM |
| COc1ccccc1N=C1NC(=O)/C(=C/c2ccc3c(c2)OCCO3)S1 | 1280 nM |
| COc1ccc(C(=O)Nc2ccccc2-c2nc3ccccc3[nH]c2=O)cc1 | 977 nM |
| O=C(Nc1ccccc1-c1nc2ccccc2[nH]c1=O)c1cc2ccccc2s1 | 8510 nM |
| O=C(Nc1ccccc1-c1nc2ccccc2[nH]c1=O)c1cccnc1 | 582 nM |
| O=C(Nc1ccccc1-c1nc2ccccc2[nH]c1=O)c1ccccn1 | 76 nM |
| O=C1NC(=NCc2ccccc2)S/C1=C/c1ccc(O)cc1 | 245 nM |
| COc1ccccc1N=C1NC(=O)/C(=C/c2ccc3c(c2)OCO3)S1 | 5410 nM |
| O=C(Nc1ccccc1-c1nc2ccccc2[nH]c1=O)c1cccs1 | 285 nM and 308 nM |
| COc1cc(/C=C2\SC(N)=NC2=O)ccc1O | 466 nM |
| O=C(Nc1ccccc1-c1nc2ccccc2[nH]c1=O)c1ccc(F)cc1 | 152 nM |
| COc1cc(/C=C2\SC(=Nc3ccccc3OC)NC2=O)ccc1O | 250 nM and 321 nM |
| O=C(Nc1ccccc1-c1nc2ccccc2[nH]c1=O)c1cccc(F)c1 | 2430 nM |
| COc1cc(/C=C2\SC(=Nc3ccccc3OC)NC2=O)ccc1F | 9910 nM |
| O=C(Nc1ccccc1-c1nc2ccccc2[nH]c1=O)c1ccncc1 | 7690 nM |
| COc1ccc(/C=C2\SC(=Nc3ccccc3OC)NC2=O)cc1 | 2250 nM |

Same assay, conditions: purified STK33, MBP phosphorylation, at 10 µM (top of the series)

| SMILES | activity change, negative = inhibition |
| --- | --- |
| COc1ccccc1Nc1nc(O)c(/C=C2/C=c3ccccc3=N2)s1 | inactive |
| COc1ccccc1N=C1NC(=O)/C(=C/c2ccc(OC(F)(F)F)cc2)S1 | inactive |
| COc1ccccc1N=C1NC(=O)/C(=C/C(C)C)S1 | inactive |
| COc1ccccc1N=C1NC(=O)/C(=C/c2ccccn2)S1 | inactive |
| O=C(Nc1ccccc1-c1nc2ccccc2[nH]c1=O)C1CCCCC1 | inactive |
| Nc1ccccc1-c1nc2ccccc2[nH]c1=O | inactive |
| COc1ccccc1N=C1NC(=O)CS1 | inactive |
| COc1ccccc1N=C1NC(=O)/C(=C/c2cccc(Cl)c2)S1 | inactive |
| COc1ccccc1N=C1NC(=O)/C(=C/c2cc(C)on2)S1 | inactive |
| COc1ccccc1N=C1NC(=O)/C(=C/c2cccn2C)S1 | inactive |
| COc1ccccc1N=C1NC(=O)/C(=C/C2CCCCC2)S1 | inactive |
| COc1ccccc1N=C1NC(=O)/C(=C/c2cccc(F)c2)S1 | inactive |
| COc1ccccc1/C=C1\SC(=Nc2ccccc2OC)NC1=O | inactive |
| O=c1[nH]c2ccccc2nc1-c1ccccc1NCc1cccs1 | inactive |
